From patent publication US20250388571A1, “AMP-ACTIVATED PROTEIN KINASE MODULATOR COMPOUNDS AND USES THEREOF” (Biolexis Therapeutics, Inc., priority 2024, published 2025) come the findings set out here.

In one assay the target is AMPK (A2/B1/G3) (Homo sapiens, UniProt P54646+Q9UGI9+Q9Y478). The assay can be described thus: AMPK kinase binding activity in activation mode (AC50). It counts as biochemical.
The target of a further assay is AMPK (A2/B1/G1) (Homo sapiens, UniProt P54619+P54646+Q9Y478). The description is as above. The class given is biochemical.
Chain of AMPK (A2/B1/G1) (P54646 whole entry): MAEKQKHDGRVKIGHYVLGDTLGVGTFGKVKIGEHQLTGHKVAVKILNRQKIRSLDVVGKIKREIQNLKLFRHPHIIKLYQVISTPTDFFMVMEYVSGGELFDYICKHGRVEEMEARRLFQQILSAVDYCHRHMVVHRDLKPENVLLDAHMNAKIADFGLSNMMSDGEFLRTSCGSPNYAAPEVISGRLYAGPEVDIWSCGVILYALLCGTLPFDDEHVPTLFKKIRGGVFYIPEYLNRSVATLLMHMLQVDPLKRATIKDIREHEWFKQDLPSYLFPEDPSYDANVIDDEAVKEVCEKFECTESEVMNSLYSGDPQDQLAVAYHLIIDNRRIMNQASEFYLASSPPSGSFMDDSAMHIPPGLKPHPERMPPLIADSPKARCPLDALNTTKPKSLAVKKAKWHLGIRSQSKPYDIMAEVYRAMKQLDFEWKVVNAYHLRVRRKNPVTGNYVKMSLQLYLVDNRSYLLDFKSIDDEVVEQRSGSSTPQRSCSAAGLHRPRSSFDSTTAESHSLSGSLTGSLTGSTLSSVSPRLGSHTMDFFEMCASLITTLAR
Chain of AMPK (A2/B1/G1) (Q9Y478 whole entry): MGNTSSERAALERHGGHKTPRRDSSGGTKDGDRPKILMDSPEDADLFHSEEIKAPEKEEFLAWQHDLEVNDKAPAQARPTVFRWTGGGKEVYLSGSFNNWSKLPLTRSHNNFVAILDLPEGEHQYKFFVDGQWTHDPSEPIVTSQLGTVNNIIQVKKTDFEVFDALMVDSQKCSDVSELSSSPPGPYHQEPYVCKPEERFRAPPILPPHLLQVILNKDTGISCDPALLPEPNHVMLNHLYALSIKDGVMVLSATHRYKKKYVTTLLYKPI
Chain of AMPK (A2/B1/G1) (P54619 whole entry): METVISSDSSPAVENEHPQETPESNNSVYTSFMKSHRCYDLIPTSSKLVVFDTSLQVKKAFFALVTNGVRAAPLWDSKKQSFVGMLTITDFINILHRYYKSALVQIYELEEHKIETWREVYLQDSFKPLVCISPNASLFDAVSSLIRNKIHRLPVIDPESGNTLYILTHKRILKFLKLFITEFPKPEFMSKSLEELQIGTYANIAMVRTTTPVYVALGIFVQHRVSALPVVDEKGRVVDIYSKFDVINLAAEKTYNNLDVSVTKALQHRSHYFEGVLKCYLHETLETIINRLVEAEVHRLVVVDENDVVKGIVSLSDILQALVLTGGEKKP
The next assay concerns the target AMPK (A2/B2/G3) (Homo sapiens, UniProt O43741+P54646+Q9UGI9). Described as above. The class given is biochemical. From the text:
In Vitro AMPK Kinase Inhibition Experiments

Assay [1] deals with human skeletal muscle cells (HSKM cells). The experiment in a line: Glucose uptake assay, human skeletal muscle cells. It counts as cell-based. The note with it: 100 μM to 0.005 μM, 1 hour. The protocol: FIGS. 1-4 show results for cells treated with differing doses of representative compounds of Structure (I) (i.e., compound I-11 in FIG. 1 and compound I-7 in FIG. 2) as well reference compounds (i.e., PF-06409577 in FIG. 3 and MK-8722 in FIG. 4). […] Cells were starved for 3 hours in high glucose DMEM without FBS, then treated with indicated compounds in DMEM without FBS/glucose for 1 hour, and glucose uptake was detected using an uptake glucose kit (Promega). The bars show (from left to right) concentrations of 100 μM, 33 μM, 11 μM, 3.7 μM, 1.23 μM, 0.41 μM, 0.14 μM, 0.045 μM, 0.015 μM, 0.005 μM, 0 μM, and insulin.
(§1) Human skeletal myoblasts were obtained (Thermofisher; BYU) and cultured in DMEM/F12 medium with 10% FBS. For differentiation, 2% horse serum low glucose DMEM medium was employed for 72 hours. Human cardiomyocytes cells (HCM cells; Promocell) were cultured in myocyte growth medium (Promocell). Human preadipocyte HWP-c cells (Promocell) were obtained from upper arm of diabetic II donor. Human preadipocyte HWP-c cells (Promocell) were obtained from abdomen of diabetic II donor. For differentiating human preadipocytes, cells were cultured in preadipocyte growth medium to total confluency stage. The growth medium was replaced with preadipocyte differentiation medium for 72 hours, then changed to PromoCell adipocyte nutrition medium to complete the differentiation process. THLE-2 cells were cultured in BEGM from Lonza/Clonetics Corporation, Walkersville, MD 21793 (BEGM Bullet Kit; CC3170). HepG2, L6 and C2Cl2 cells were cultured in EMEM medium.
(§2) After differentiation myoblasts, preadipocyte cells were starved by removing the medium and adding 100 μL DMEM without serum. The medium was then replaced with 100 μL DMEM±1 μM insulin at indicated concentration of representative compounds without serum or glucose. The cells were then incubated for 1 hour at 37° C. in 5% CO2. The cells were then removed from the medium and 50 μL of 0.1 mM 2DG in PBS was added. Cells were incubated for 30 minutes at 25° C. 25 μL of Stop Buffer was added and samples were mixed. 25 μL of Neutralization Buffer was then added and mixed. 100 μL of 2DG6P Detection Reagent was then added and mixed. Samples were then incubated for 1 hour at 25° C. Luminescence was then recorded with 0.3-1 second integration on a luminometer.

The subject of assay [2] is human cardiomyocyte cells (HCM). The experiment in a line: Glucose uptake assay, human cardiomyocyte cells. The note with it: for AMPK activation activity (glucose uptake assay): 10 doses 100 μM to 0.005 μM. The class given is cell-based. The protocol: FIGS. 17-19 show results for glucose update assays in human cardiomyocyte cells (“HCM”-healthy donor) (Promocell, cat. no. C-12810) when treated with compound I-11 (FIG. 17), compound I-7 (FIG. 18), and PF-06409577 (FIG. 19). After recovered HCM cells for 4 days, cells were starved for 3 hours in high glucose DMEM without FBS, treated with the components noted above in DMEM without FBS/glucose for 1 hour, and glucose uptake was detected using a glucose uptake kit (Promega). […] The bars show (from left to right) concentrations of 100 μM, 33 μM, 11 μM, 3.7 μM, 1.23 μM, 0.41 μM, 0.14 μM, 0.045 μM, 0.015 μM, 0.005 μM, 0 μM, and insulin.
FIGS. 20-22 show results for glucose update assays in human cardiomyocyte cells (“HCM”-diabetic donor) (Promocell, cat. no. C-12810) when treated with compound I-11 (FIG. 20), compound I-7 (FIG. 21), and PF-06409577 (FIG. 22). After recovered HCM cells for 4 days, cells were starved for 3 hours in high glucose DMEM without FBS, treated with the components noted above in DMEM without FBS/glucose for 1 hour, and glucose uptake was detected using a glucose uptake kit (Promega). […] The bars show (from left to right) concentrations of 100 μM, 33 μM, 11 μM, 3.7 μM, 1.23 μM, 0.41 μM, 0.14 μM, 0.045 μM, 0.015 μM, 0.005 μM, 0 μM, and insulin.
as §1, §2

Chain of AMPK (A2/B2/G3) (P54646 whole entry): as the sequence (P54646 whole entry) above
Chain of AMPK (A2/B2/G3) (O43741 whole entry): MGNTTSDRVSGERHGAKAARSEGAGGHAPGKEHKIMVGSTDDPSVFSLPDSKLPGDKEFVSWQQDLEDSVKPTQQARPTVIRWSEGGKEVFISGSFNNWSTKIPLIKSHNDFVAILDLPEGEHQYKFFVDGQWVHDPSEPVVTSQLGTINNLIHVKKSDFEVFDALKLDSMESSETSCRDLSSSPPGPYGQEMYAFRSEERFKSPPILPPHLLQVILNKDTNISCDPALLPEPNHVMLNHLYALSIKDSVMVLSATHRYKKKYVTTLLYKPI
Chain of AMPK (A2/B2/G3) (Q9UGI9 whole entry): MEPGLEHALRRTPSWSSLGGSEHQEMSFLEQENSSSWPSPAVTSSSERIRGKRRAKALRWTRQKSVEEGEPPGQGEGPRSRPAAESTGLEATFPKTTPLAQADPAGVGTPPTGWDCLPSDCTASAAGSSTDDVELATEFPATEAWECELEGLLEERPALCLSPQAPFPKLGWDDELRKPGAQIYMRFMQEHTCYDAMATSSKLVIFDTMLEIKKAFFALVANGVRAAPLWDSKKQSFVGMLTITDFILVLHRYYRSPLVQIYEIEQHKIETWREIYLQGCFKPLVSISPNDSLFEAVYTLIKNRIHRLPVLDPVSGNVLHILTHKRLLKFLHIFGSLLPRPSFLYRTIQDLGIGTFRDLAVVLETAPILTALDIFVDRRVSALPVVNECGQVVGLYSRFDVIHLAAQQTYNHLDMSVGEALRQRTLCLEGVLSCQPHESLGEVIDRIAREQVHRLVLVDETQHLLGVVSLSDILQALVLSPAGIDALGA
Chain of AMPK (A2/B1/G3) (P54646 whole entry): as the sequence (P54646 whole entry) above
Chain of AMPK (A2/B1/G3) (Q9Y478 whole entry): as the sequence (Q9Y478 whole entry) above
Chain of AMPK (A2/B1/G3) (Q9UGI9 whole entry): as the sequence (Q9UGI9 whole entry) above

Usually AC50 stands for the concentration at which the activity in the assay is half-maximal. With “1-(6-chloro-5-(4-(1- hydroxycyclobutyl) phenyl)- 1H-indol-3-yl)-4-methyl-4,5- dihydro-3H-1l6,2,5- thiadiazol-3-one 1-oxide (racemic) [Compound I-2, 1-(6-chloro-5-(4-(1-hydroxycyclobutyl)phenyl)-1H-indol-3-yl)-4-methyl-4,5-dihydro-3H-1l6,2,5-thiadiazol-3-one 1-oxide (racemic)]”, the AC50 on AMPK (A2/B1/G3) lay in the range of 10 to 500 nM. On the same count and under the same terms, for `C[C@@H]1NS(=O)(c2c[nH]c3cc(Cl)c(-c4ccc(C5(O)CCC5)cc4)cc23)=NC1=O` (stereo partly drawn) [Compound I-3, (4S)-1-(6-chloro-5-(4-(1-hydroxycyclobutyl)phenyl)-1H-indol-3-yl)-4-methyl-4,5-dihydro-3H-1l6,2,5-thiadiazol-3-one 1-oxide] the value was 10 to 500 nM; for `C[C@H]1NS(=O)(c2c[nH]c3cc(Cl)c(-c4ccc(C5(O)CCC5)cc4)cc23)=NC1=O` (stereo partly drawn) [Compound I-4, (4R)-1-(6-chloro-5-(4-(1-hydroxycyclobutyl)phenyl)-1H-indol-3-yl)-4-methyl-4,5-dihydro-3H-1l6,2,5-thiadiazol-3-one 1-oxide], 10 to 500 nM.

On to `O=c1[nH]c(-c2c[nH]c3ncc(-c4ccc(C5(O)CCC5)cc4)cc23)no1` [Compound I-9, 3-(5-(4-(1-hydroxycyclobutyl)phenyl)-1H-pyrrolo[2,3-b]pyridin-3-yl)-1,2,4-oxadiazol-5(4H)-one], for which the AC50 at AMPK (A2/B1/G3) lay within 10 to 500 nM.

Turning to `O=c1[nH]c(-c2c[nH]c3cc(F)c(-c4ccc(C5(O)COC5)nc4)cc23)no1` [Compound I-18, 3-(6-fluoro-5-(6-(3-hydroxyoxetan-3-yl)pyridin-3-yl)-1H-indol-3-yl)-1,2,4-oxadiazol-5(4H)-one], the half-maximal activity concentration (AC50) on AMPK (A2/B1/G1) lay in the range of 7500 to 20000 nM. In the case of `O=P(O)(O)CSc1c[nH]c2cc(F)c(-c3ccc(N4CC[C@H](O)C4)cc3)cc12` [Compound I-24, (S)-(((6-fluoro-5-(4-(3-hydroxypyrrolidin-1-yl)phenyl)-1H-indol-3-yl)thio)methyl)phosphonic acid], the AC50 at AMPK (A2/B2/G3) was in the range of 500 to 5000 nM; on AMPK (A2/B1/G3), 10 to 500 nM. Regarding `O=P(O)(O)CSc1c[nH]c2cc(F)c(-c3ccc(N4CC[C@H](O)C4)cc3)c(F)c12` [Compound I-25, (S)-(((4,6-difluoro-5-(4-(3-hydroxypyrrolidin-1-yl)phenyl)-1H-indol-3-yl)thio)methyl)phosphonic acid], the concentration at half-maximal activity (AC50) on AMPK (A2/B2/G3) fell in the range of 500 to 5000 nM; at AMPK (A2/B1/G3), 10 to 500 nM.

Regarding `O=P(O)(O)CSc1c[nH]c2cc(F)c(N3CC[C@H](O)C3)c(F)c12` [Compound I-26, (S)-(((4,6-difluoro-5-(3-hydroxypyrrolidin-1-yl)-1H-indol-3-yl)thio)methyl) phosphonic acid], the AC50 fell in the range of 500 to 5000 nM on AMPK (A2/B2/G3) and 10 to 500 nM on AMPK (A2/B1/G3). Compound `O=c1[nH]c(-c2c[nH]c3cc(F)c(-c4ccc(C5(O)CCC5)cc4)nc23)no1` [Compound I-44, 3-(6-fluoro-5-(4-(1-hydroxycyclobutyl)phenyl)-1H-pyrrolo[3,2-b]pyridin-3-yl)-1,2,4-oxadiazol-5(4H)-one] yielded a concentration at half-maximal activity (AC50) on AMPK (A2/B1/G3) of 500 to 5000 nM.

Consider `O=c1[nH]c(-c2c[nH]c3cc(F)c(-c4ccc(C5(O)COC5)cc4)nc23)no1` [Compound I-45, 3-(6-fluoro-5-(4-(3-hydroxyoxetan-3-yl)phenyl)-1H-pyrrolo[3,2-b]pyridin-3-yl)-1,2,4-oxadiazol-5(4H)-one], for which the AC50 at AMPK (A2/B1/G3) is 5000 to 7500 nM. Turning to `O=P(O)(O)CSc1c[nH]c2cc(F)c(-c3ccc(C4(O)CCC4)cc3)c(F)c12` [Compound I-46, (((4,6-difluoro-5-(4-(1-hydroxycyclobutyl)phenyl)-1H-indol-3-yl)thio)methyl)phosphonic acid], the figures for the half-maximal activity concentration (AC50) at AMPK (A2/B2/G3) and at AMPK (A2/B1/G3) were 500 to 5000 nM and 10 to 500 nM, respectively. Consider `O=P(O)(O)CSc1c[nH]c2cc(F)c(-c3ccc(C4(O)CCC4)cc3)cc12` [Compound I-47, (((6-fluoro-5-(4-(1-hydroxycyclobutyl)phenyl)-1H-indol-3-yl)thio)methyl)phosphonic acid], for which the figures for the concentration at half-maximal activity (AC50) at AMPK (A2/B2/G3) and on AMPK (A2/B1/G3) were 500 to 5000 nM and 10 to 500 nM, respectively.

Turning to `O=P(O)(O)CSc1c[nH]c2ccc(-c3ccc(C4(O)CCC4)cc3)cc12` [Compound I-48, (((5-(4-(1-hydroxycyclobutyl)phenyl)-1H-indol-3-yl)thio)methyl)phosphonic acid], the concentration at half-maximal activity (AC50) lay in the range of 500 to 5000 nM on AMPK (A2/B2/G3) and 10 to 500 nM at AMPK (A2/B1/G3). The corresponding values for `OB1OCc2ccc(-c3c[nH]c4cc(Cl)c(-c5ccc(C6(O)CCC6)cc5)cc34)cc21` [Compound I-75, 6-(6-chloro-5-(4-(1-hydroxycyclobutyl)phenyl)-1H-indol-3-yl)benzo[c][1,2]oxaborol-1(3H)-ol] are 500 to 5000 nM and 500 to 5000 nM.

Turning to `O=C1CN(c2c[nH]c3cc(Cl)c(-c4ccc(C5(O)CCC5)cc4)cc23)S(=O)(=O)N1` [Compound I-76, 5-(6-chloro-5-(4-(1-hydroxycyclobutyl)phenyl)-1H-indol-3-yl)-1,2,5-thiadiazolidin-3-one 1,1-dioxide], the AC50 at AMPK (A2/B2/G3) was 500 to 5000 nM; on AMPK (A2/B1/G3) it was not above 10 nM. Take `Cc1ccc(N2CC(=O)NS2(=O)=O)cc1Oc1nc2nc(-c3ccc(C4(O)CCC4)cc3)c(Cl)cc2[nH]1` [II-21, 5-(3-((6-chloro-5-(4-(1-hydroxycyclobutyl)phenyl)-1H-imidazo[4,5-b]pyridin-2-yl)oxy)-4-methylphenyl)-1,2,5-thiadiazolidin-3-one 1,1-dioxide]: the concentration at half-maximal activity (AC50) was 5000 to 7500 nM at AMPK (A2/B2/G3) and not above 10 nM on AMPK (A2/B1/G3). In the case of `Cc1ccc(N2CC(=O)NS2(=O)=O)cc1Oc1nc2cc(-c3ccc(C4(O)CCC4)cc3)c(F)cc2[nH]1` [II-22, 5-(3-((6-fluoro-5-(4-(1-hydroxycyclobutyl)phenyl)-1H-benzo[d]imidazol-2-yl)oxy)-4-methylphenyl)-1,2,5-thiadiazolidin-3-one 1,1-dioxide], the AC50 on AMPK (A2/B2/G3) and at AMPK (A2/B1/G3) was 10 to 500 nM each time. For the compound `Cc1ccc(N2CC(=O)NS2(=O)=O)cc1Oc1nc2cc(-c3ccc(C4(O)CCC4)cc3)c(Cl)cc2[nH]1` [II-23, 5-(3-((6-chloro-5-(4-(1-hydroxycyclobutyl)phenyl)-1H-benzo[d]imidazol-2-yl)oxy)-4-methylphenyl)-1,2,5-thiadiazolidin-3-one 1,1-dioxide], the AC50 at AMPK (A2/B2/G3) and on AMPK (A2/B1/G3) was 10 to 500 nM throughout. For the compound `Cc1cc2c(cc1Oc1nc3nc(-c4ccc(C5(O)CCC5)cc4)c(Cl)cc3[nH]1)B(O)OC2` [II-26, 6-((6-chloro-5-(4-(1-hydroxycyclobutyl)phenyl)-1H-imidazo[4,5-b]pyridin-2-yl)oxy)-5-methylbenzo[c][1,2]oxaborol-1(3H)-ol], the half-maximal activity concentration (AC50) at AMPK (A2/B2/G3) was 10 to 500 nM; on AMPK (A2/B1/G3) it was not above 10 nM. Regarding `O=C(O)c1c[nH]c2cc(Cl)c(-c3ccc(C4CCCO4)cc3)cc12` (centres unmarked) [PF-06409577, reference compound], in assay [1], the “dose dependence of glucose uptake (printed: activation of insulin / AMPK activation)” value is “highly variable”. For the same compound, the “AMPK activation activity (glucose uptake assay)” value in assay [2] (diabetic donor) and in assay [2] (healthy donor) was “significant variability” each time. Further, the glucose uptake entry in assay [2] (donor not stated) was “did not induce glucose uptake in dose-dependent manner”.
